Experimental data published in the RepoRT retention time repository.

Experiment: Waters ACQUITY UPLC BEH C18, 100 × 2.1 mm, 1.7 µm, 40 °C, 0.3 to 0.4 mL/min, estimated dead time 0.63 min; A: water + 0.1% formic acid; B: methanol + 0.1% formic acid; gradient (min/%B) 0/0.5 0.1/0.5 10/80 10.1/99.5 12/99.5
Details: stereoisomer not certain
Work on `COc1ccc(-c2coc3cc(O)cc(O)c3c2=O)cc1` yielded an LC retention time of 7.63 min. In the case of `O=S(=O)(O)ON=C(Cc1ccc(O)cc1)SC1OC(CO)C(O)C(O)C1O` (stereo unspecified), the LC retention time is reported as 2 min. Work on `OCC(Cc1cccc(O)c1)C(CO)Cc1cccc(O)c1` (stereo unspecified) yielded an LC retention time of 5.26 min. For `CS(=O)CCCCCCCN` (stereo unspecified), the LC retention time was 2.08 min. Work on `CN(C)Cc1c[nH]c2ccccc12` yielded an LC retention time of 3.06 min. Compound `CN1Cc2c(ccc3c2OCO3)C2C(O)Cc3cc4c(cc3C21)OCO4` (stereo unspecified) has an LC retention time of 4.53 min. With `COc1cc(C(=O)OC2CC3CCC(C2)N3)ccc1O` (stereo unspecified) the LC retention time was 3.27 min. `CC1OC(OCC2OC(Oc3c(-c4ccccc4O)oc4cc(O)cc(O)c4c3=O)C(O)C(O)C2O)C(O)C(O)C1O` (stereo unspecified) showed an LC retention time of 4.1 min. `O=c1cc(-c2ccc(O)c(O)c2)oc2c(C3OC(CO)C(O)C(O)C3O)c(O)c(C3OC(CO)C(O)C(O)C3O)c(O)c12` (stereo unspecified) showed an LC retention time of 3.1 min. With `CS(=O)CCCCN=C=S` (stereo unspecified) the LC retention time was 3.69 min. `CC=C1CN(C)C2CC3(C(=O)N(OC)c4ccccc43)C3CC1C2CO3` (stereo unspecified) gave an LC retention time of 4.63 min. Compound `COc1ccc(-c2oc3c(CC=C(C)C)c(OC4OC(CO)C(O)C(O)C4O)cc(O)c3c(=O)c2OC2OC(C)C(O)C(O)C2O)cc1` (stereo unspecified) has an LC retention time of 5.43 min. In the case of `COc1cc(C=CC(=O)NCCCCN=C(N)N)ccc1O`, the LC retention time is reported as 3.22 min. With `O=C(C=Cc1ccccc1)c1ccccc1` the LC retention time was 9.02 min. In the case of `CC1(C)CCC2(C(=O)O)CCC3(C)C(=CCC4C5(C)CCC(OC6OC(C(=O)O)C(O)C(OC7OC(CO)C(O)C(O)C7O)C6O)C(C)(CO)C5CCC43C)C2C1` (stereo unspecified), the LC retention time is reported as 7.55 min. Work on `COc1cc(-c2oc3cc(O)cc(O)c3c(=O)c2OC2OC(CO)C(O)C(O)C2O)ccc1OC1OC(CO)C(O)C(O)C1O` (stereo unspecified) yielded an LC retention time of 3.23 min. `CCC1CN2CCC3(C(=O)Nc4ccccc43)C2CC1C(=COC)C(=O)OC` (stereo unspecified) showed an LC retention time of 4.9 min. With `COc1ccc(C2CC(=O)c3c(O)cc(OC4OC(COC5OC(C)C(O)C(O)C5O)C(O)C(O)C4O)cc3O2)cc1O` (stereo unspecified) the LC retention time was 4.51 min. In the case of `CC(C)C(=O)OC(CC(=O)[O-])C[N+](C)(C)C` (stereo unspecified), the LC retention time is reported as 2.48 min. With `O=C(O)C=C(CC(=O)O)C(=O)O` the LC retention time was 1.61 min. Work on `CC(C)=CCc1c(O)cc(O)c2c1OCC(c1ccc(O)cc1O)C2=O` (stereo unspecified) yielded an LC retention time of 7.04 min. `Oc1cc(O)c2c(c1)OC(c1cc(O)c(O)c(O)c1)C(O)C2` (stereo unspecified) showed an LC retention time of 2.49 min. In the case of `O=C([O-])CC(=O)OCC1OC(OC2Cc3c(O)cc(O)cc3[O+]=C2c2ccc(O)cc2)C(O)C(O)C1O` (stereo unspecified), the LC retention time is reported as 4.88 min. Compound `CC(=O)OC1CC(COC2OC(CO)C(O)C(O)C2O)CNC12OC1CC3C4CCC5CC(OC6OC(CO)C(OC7OC(CO)C(OC8OC=C(O)C(O)C8O)C(O)C7OC7OC(CO)C(O)C(O)C7O)C(O)C6O)CCC5(C)C4CCC3(C)C1C2C` (stereo unspecified) has an LC retention time of 3.88 min. `OCCc1c[nH]c2ccccc12` gave an LC retention time of 3.06 min. In the case of `CCCCCCCCCCCCCCCC(=O)OCC(O)COP(=O)(O)OCCN` (stereo unspecified), the LC retention time is reported as 10 min. With `CC(=O)OCC1OC(Oc2cc(O)c3c(=O)cc(-c4ccc(O)cc4)oc3c2)C(O)C(O)C1O` (stereo unspecified) the LC retention time was 5.14 min. For `OCC1OC(Oc2cc(O)cc3[o+]c(-c4ccc(O)c(O)c4)c(OC4OC(CO)C(O)C(O)C4OC4OCC(O)C(O)C4O)cc23)C(O)C(O)C1O` (stereo unspecified), the LC retention time was 2.49 min. With `CCCCCC=CCC=CCC=CCC=CCCCC(=O)O` the LC retention time was 7.39 min. `CCC(C)C(NCC1(O)OCC(O)C(O)C1O)C(=O)NC(CCC(=O)O)C(=O)O` (stereo unspecified) showed an LC retention time of 2.07 min. In the case of `C=CC1C(OC2OC(CO)C(O)C(O)C2O)OC=C2C(=O)N3Cc4c([nH]c5ccccc5c4=O)C3CC21` (stereo unspecified), the LC retention time is reported as 4.07 min. In the case of `CCC=CCC=CCC=CCCCCCCCC(=O)OCC(O)COP(=O)([O-])OCC[N+](C)(C)C` (stereo unspecified), the LC retention time is reported as 8.93 min. For `O=c1cc(-c2ccc(O)cc2)oc2c(C3OC(CO)C(O)C(O)C3O)c(O)c(C3OC(CO)C(O)C(O)C3O)c(O)c12` (stereo unspecified), the LC retention time was 3.3 min. `c1ccc2c(c1)[nH]c1cnccc12` showed an LC retention time of 3.48 min. `O=C(Cc1c[nH]c2ccccc12)NC(Cc1ccccc1)C(=O)O` (stereo unspecified) showed an LC retention time of 6.34 min. `CCCCCCCCCCCCC(O)C(O)C(COC1OC(CC(C(=O)O)C(=O)O)C(O)C(O)C1O)NC(C)=O` (stereo unspecified) showed an LC retention time of 4.79 min. `O=C(O)CC(=O)OCC1OC(Oc2cc(O)c3c(=O)c(-c4ccc(O)cc4)coc3c2)C(O)C(O)C1O` (stereo unspecified) gave an LC retention time of 4.89 min. Work on `COC(=O)C1CC23CCCN4CCC5(c6ccccc6NC15CC2)C43` (stereo unspecified) yielded an LC retention time of 3.92 min. In the case of `COc1cc(-c2cc(=O)c3c(O)cc(OC4OC(COC(=O)CC(=O)O)C(O)C(O)C4O)cc3o2)cc(OC)c1O` (stereo unspecified), the LC retention time is reported as 4.91 min. `CCC(C)C(N)C(=O)NC(C(=O)O)C(C)CC` (stereo unspecified) showed an LC retention time of 3.05 min. For `CC=C1CN2C3CC1C1COC(c4c3[nH]c3cc(OC)ccc43)C12` (stereo unspecified), the LC retention time was 4.42 min. In the case of `O=c1c(OC2OCC(O)C(O)C2O)c(-c2ccc(O)c(O)c2)oc2cc(O)cc(O)c12` (stereo unspecified), the LC retention time is reported as 4.17 min. `CC1OC(Oc2c(-c3ccc(O)c(O)c3)oc3cc(O)cc(O)c3c2=O)C(OC2OC(CO)C(O)C(O)C2O)C(O)C1O` (stereo unspecified) showed an LC retention time of 4.15 min. `CC(C)=CCCC(C)(OC1OC(CO)C(O)C(O)C1O)C1CCC2(C)C1C(O)CC1C3(C)CCC(O)C(C)(C)C3C(OC3OC(CO)C(O)C(O)C3O)CC12C` (stereo unspecified) gave an LC retention time of 4.8 min. `OCC1OC(OCC2OC(O)(CO)C(O)C2O)C(O)C(O)C1O` (stereo unspecified) gave an LC retention time of 1.74 min. `C=CC1C(OC2OC(CO)C(O)C(O)C2O)OC=C(C(=O)OC)C1CC=O` (stereo unspecified) gave an LC retention time of 3.84 min. `CC(C)=CCc1cc(C2Oc3c(ccc(O)c3CC=C(C)C)C(=O)C2O)ccc1O` (stereo unspecified) showed an LC retention time of 10.2 min. `CCC1=CC2CN3CCc4c([nH]c5ccccc45)C(C(=O)OC)(C2)C13` (stereo unspecified) gave an LC retention time of 5.04 min. `COc1cc2ccc(=O)oc2cc1OC1OC(CO)C(O)C(O)C1O` (stereo unspecified) showed an LC retention time of 3.11 min. For `O=C(C=Cc1ccc(O)c(O)c1)NCCCCN(CCCNC(=O)C=Cc1ccc(O)cc1)C(=O)C=Cc1ccc(O)c(O)c1`, the LC retention time was 5 min. In the case of `CCOC(=O)Oc1c(OC)cc(C(=O)OC2CC3CN4CCc5c([nH]c6cc(OC)ccc56)C4CC3C(C(=O)OC)C2OC)cc1OC` (stereo unspecified), the LC retention time is reported as 6.72 min. Compound `O=C1CC2OCC=C3CN4CCC56c7ccccc7N1C5C2C3CC46` (stereo unspecified) has an LC retention time of 3.46 min. In the case of `CC(=O)OC1CC(COC2OC(CO)C(O)C(O)C2OC2OC(CO)C(O)C(O)C2O)CNC12OC1CC3C4CCC5CC(OC6OC(CO)C(OC7OC(CO)C(OC8OCC(O)C(O)C8O)C(O)C7OC7OC(CO)C(O)C(O)C7O)C(O)C6O)CCC5(C)C4CCC3(C)C1C2C` (stereo unspecified), the LC retention time is reported as 3.84 min. `OCC1OC(Oc2cc(O)cc(C=Cc3ccc(O)cc3)c2)C(O)C(O)C1O` (stereo unspecified) showed an LC retention time of 4.05 min. In the case of `CC(N)C(=O)NC(Cc1ccccc1)C(=O)O` (stereo unspecified), the LC retention time is reported as 2.84 min. Work on `OCC=Cc1ccc(O)c(O)c1` yielded an LC retention time of 3.18 min. Compound `O=C1CC(c2ccc(O)c(O)c2)Oc2c1ccc(OC1OC(CO)C(O)C(O)C1O)c2O` (stereo unspecified) has an LC retention time of 3.47 min. Work on `CC(C)=CCc1cc(C=CC(=O)c2ccc(O)cc2O)ccc1O` yielded an LC retention time of 8.61 min. For `CC(C)CC1NC(=O)C2CCCN2C1=O` (stereo unspecified), the LC retention time was 4.03 min. Work on `CC(CCC1(O)OC2CC3C4CC=C5CC(OC6OC(COC7OC(C)C(O)C(O)C7OC7OC(C)C(O)C(O)C7OC7OC(C)C(O)C(O)C7O)C(O)C(O)C6O)CCC5(C)C4CCC3(C)C2C1C)COC1OC(CO)C(O)C(O)C1O` (stereo unspecified) yielded an LC retention time of 5.1 min. `CC(CCC1(O)OC2CC3C4CCC5CC(OC6OC(CO)C(O)C(O)C6OC6OC(CO)C(O)C(O)C6O)C(O)CC5(C)C4CCC3(C)C2C1C)COC1OC(CO)C(O)C(O)C1O` (stereo unspecified) showed an LC retention time of 4.64 min. In the case of `C=CCc1ccc(O)c(-c2cc(CC=C)ccc2O)c1`, the LC retention time is reported as 9.21 min. `COc1ccc(C2CC(=O)c3c(O)cc(O)cc3O2)cc1O` (stereo unspecified) gave an LC retention time of 6.04 min. Compound `O=c1cc(-c2ccc(O)c(O)c2)oc2c(C3OCC(O)C(O)C3O)c(O)c(C3OC(CO)C(O)C(O)C3O)c(O)c12` (stereo unspecified) has an LC retention time of 3.35 min. In the case of `O=C(C=Cc1ccc(O)cc1)NCCCCN(CCCNC(=O)C=Cc1ccc(O)cc1)C(=O)C=Cc1ccc(O)cc1`, the LC retention time is reported as 5.62 min. Work on `COc1cc(C=CC(=O)NCCCCN=C(N)N)cc(OC)c1O` yielded an LC retention time of 3.27 min. `O=C1c2c(O)cc(O)cc2OC(c2ccc(O)c(O)c2)C1O` (stereo unspecified) showed an LC retention time of 4.27 min. Compound `COc1cc2c(cc1OC)-c1c(C)c3ccc(OC)c(OC)c3c[n+]1CC2` has an LC retention time of 5.19 min. With `C=CC1CN2CCC1CC2C(O)c1ccnc2ccc(OC)cc12` (stereo unspecified) the LC retention time was 3.31 min. With `COc1ccc(-c2oc3cc(O)cc(O)c3c(=O)c2O)cc1` the LC retention time was 5.99 min. `COc1ccc(C(=O)OC2CC3CCC(C2)N3C)cc1OC` (stereo unspecified) showed an LC retention time of 3.95 min. In the case of `CC(C)=CCCC(C)(OC1OC(COC2OCC(O)C(O)C2O)C(O)C(O)C1O)C1CCC2(C)C1C(O)CC1C3(C)CCC(O)C(C)(C)C3C(O)CC12C` (stereo unspecified), the LC retention time is reported as 6.11 min. Compound `O=C(O)C1C(O)CCC2CN3CCc4c([nH]c5ccccc45)C3CC21` (stereo unspecified) has an LC retention time of 3.82 min. In the case of `O=C(O)c1cc(O)c(O)c(O)c1`, the LC retention time is reported as 2.04 min. In the case of `O=c1c(-c2ccc(O)cc2)coc2cc(OC3OC(CO)C(O)C(O)C3O)ccc12` (stereo unspecified), the LC retention time is reported as 3.65 min. In the case of `CC1=C(O)C(=O)CC(OC2CC(C)(C)CC3C4=CCC5C6(C)CCC(OC7OC(C(=O)O)C(O)C(O)C7OC7OC(C(=O)O)C(O)C(O)C7OC7OC(C)C(O)C(O)C7O)C(C)(CO)C6CCC5(C)C4(C)CCC23C)O1` (stereo unspecified), the LC retention time is reported as 7.66 min. Work on `CC1OC(Oc2cc(O)c3c(=O)c(OC4OC(C)C(O)C(O)C4O)c(-c4ccc(O)c(O)c4)oc3c2)C(O)C(O)C1O` (stereo unspecified) yielded an LC retention time of 3.67 min. `CC1=C(O)C(=O)CC(OC2CC(C)(C)CC3C4=CCC5C6(C)CCC(OC7OC(C(=O)O)C(O)C(O)C7OC7OC(C(=O)O)C(O)C(O)C7O)C(C)(CO)C6CCC5(C)C4(C)CCC23C)O1` (stereo unspecified) showed an LC retention time of 7.96 min. For `CC(C)CC(N)C(=O)NC(C(=O)O)C(C)C` (stereo unspecified), the LC retention time was 2.66 min. In the case of `C=CC1C2=CCOC(=O)C2=COC1OC1OC(CO)C(O)C(O)C1O` (stereo unspecified), the LC retention time is reported as 3.44 min. `CS(=O)CCCCCCCCC#N` (stereo unspecified) showed an LC retention time of 3.03 min.
